Laboratory results: patent publication US9114086B2, “Coated tablets of eszopiclone” (Sunovion Pharmaceuticals Inc., priority 2009, dated 2015)

Legend:
[1] = Instantaneous dissolution of coated tablets in 5% human saliva solution, LC/MS/MS; type: physicochemical
Excerpt: A typical procedure for preparing the instantaneous dissolution solutions of coated tablets is described as follows: a tablet comprising a core and a film coating—in this case a coated eszopiclone tablet—is randomly selected, and then placed into a basket sinker (e.g., Hanson Research Part # ENMISC, BSK008-JP 8 mesh, 0.76″ L×0.41″ W) with long handle (made from stainless steel tubing). The basket is then immersed in dissolution diluent (e.g., 5% human saliva solution) in vial 1 for 2-5 seconds, then moved to vial 2 for 2-5 seconds dipping and so on with the same tablet. The dissolution diluents (e.g., 5% human saliva solution in water) can be prepared by mixing thoroughly about 50 mL of normal human saliva and about 950 mL of water in a suitable container. About 5 mL of the 5% human saliva solution is then pipetted into several scintillation vials (approximately 20 mL volume). This procedure has been employed with tablets coated with about 2-4% coating by weight
Alternatively, the dipping experiment described above may be carried out by immersing the tablet in the basket in dissolution diluents (e.g., about 5% human saliva solution in water) in vial 1, moving the basket up and down for about 2-5 seconds at a speed of approximate 1 dip every two seconds; remove the basket from the diluent; take a sample of the diluent; re-immerse the tablet in the same vial. Continue the experiment similarly to collect samples until the tablet disintegrates or the preselected time course is completed, whichever comes first. In this embodiment, a new tablet is used in each vial. The experiment is repeated as described for additional nine or ten tablets (total of 10 tablets). The concentration of active ingredient, e.g., eszopiclone, in the sample solutions is then determined using LC/MS/MS (ESI mode, positive MRM scan type). The dissolution instantaneous profile of the tablets is constructed by plotting logarithmic concentration of eszopiclone versus time in seconds.
Another typical procedure for preparing the instantaneous dissolution solutions of coated tablets is described as follows: a number of tablets comprising a core and a film coating—in this case coated eszopiclone tablets—are transferred into basket sinkers and into a series of vials containing the dissolution diluents. The basket is then immersed in dissolution diluents (e.g., 5% human saliva solution in water) in vial 1 for 5 seconds, in vial 2 for 10 seconds, in vial 3 for 15 seconds dipping and so on with the series of tablets. The dissolution diluents (e.g., 5% human saliva solution in water) can be prepared by mixing thoroughly 50 mL of normal human saliva and 950 mL of water in a suitable container. About 5 mL of the 5% human saliva solution is then pipetted into several scintillation vials (approximately 20 mL volume). This procedure has been employed with tablets coated with 3-8% coating by weight.
In each scenario above, the concentration of core material, e.g., eszopiclone, the active ingredient in the sample solutions, is determined using LC/MS/MS (ESI mode, positive MRM scan type). The dissolution instantaneous profile of the tablets is constructed by plotting logarithmic concentration of eszopiclone versus time in seconds.
Described herein are instantaneous dissolution methods comprising a step using a LC/MS/MS technique to measure the concentration of the active ingredient in the instantaneous dissolution solution. Specifically, the LC/MS/MS procedure includes: centrifuge samples from above instantaneous dissolution solution at 6000×g for 5 minutes (if sample appears cloudy) to obtain clear solution; take out supernatant or clear solution and load into HPLC auto samplers. […]

[2] = Sample solution stability (short term), HPLC-MS/MS method validation; type: physicochemical; settings: stored at room temperature
Description: Described herein are instantaneous dissolution methods comprising a step using a LC/MS/MS technique to measure the concentration of the active ingredient in the instantaneous dissolution solution. Specifically, the LC/MS/MS procedure includes: centrifuge samples from above instantaneous dissolution solution at 6000×g for 5 minutes (if sample appears cloudy) to obtain clear solution; take out supernatant or clear solution and load into HPLC auto samplers. If the concentration of the active ingredient is above the upper calibration range (100 ng/mL), the sample solution will go through further dilution, for instance, by pipetting 100 μL of the centrifuged sample solution into 4.9 mL of sample diluents; If dilution sample is still above the calibration range, a serial dilution can be made with the dilution solution containing Internal Standard. Final diluted sample concentration should fall into the calibration range.
A summary of the HPLC-MS/MS method validation results can be found in the table below: […]

For `CN1CCN(C(=O)O[C@H]2c3nccnc3C(=O)N2c2ccc(Cl)cn2)CC1` [Eszopiclone, (S)-(6-(5-chloro-2-pyridyl)-5-[(4-methyl-1-piperazinyl)carbonyloxy]-7-oxo-6,7-dihydro-5H-pyrrolo[3,4-b]pyrazine)], the “Mean, % dissolved results” value ([1]; Time 5 seconds) was 5.317%, the “Mean, % dissolved results” value ([1]; Time 10 seconds) was 6.875% and the “Mean, % dissolved results” value ([1]; Time 15 seconds) was 7.461%. The “Mean, % dissolved results” value ([1]; Time 20 seconds) was 14.144%, the “Mean, % dissolved results” value ([1]; Time 25 seconds) was 12.222% and the “Mean, % dissolved results” value ([1]; Time 30 seconds) was 16.625%. For the same molecule, the “Mean, % dissolved results” value ([1]; Time 35 seconds) was 22.404%, the “Mean, % dissolved results” value ([1]; Time 40 seconds) was 14.658% and the “Mean, % dissolved results” value ([1]; Time 45 seconds) was 14.989%. For the same molecule, the “Mean, % dissolved results” value ([1]; Time 50 seconds) was 12.477% and the “Sample solution stability (short term)” value [2] was “Sample solutions are stable for 8 hours”.
